Each block holds one compound with its values, some of them ahead of it. Active and inactive are the calls of the source. The calls are words filed in the database; no cut-off is given here.
Assays:
[1] = molecular target: T1, Gamma-secretase (Homo sapiens) (UniProt Q96BI3+Q9NZ42+Q8WW43+P49768+Q92542+P49810); test: Inhibition of gamma secretase mediated amyloid beta 38 generation in human H4 cells at 5 uM by LPECL assay; values are per cent of control
[2] = molecular target: T1, Gamma-secretase (Homo sapiens); test: Inhibition of gamma secretase mediated amyloid beta 40 generation in human H4 cells at 5 uM by LPECL assay; values are per cent of control
[3] = molecular target: T1, Gamma-secretase (Homo sapiens); test: Inhibition of gamma secretase mediated amyloid beta 42 generation in human H4 cells at 5 uM by LPECL assay; values are per cent of control
[4] = molecular target: RAC-alpha serine/threonine-protein kinase (Homo sapiens) (UniProt P31749); test: Inhibition of AKT1
[5] = Inhibition of AMPK
[6] = molecular target: Tyrosine-protein kinase BTK (Homo sapiens) (UniProt Q06187); test: Inhibition of BTK
[7] = Inhibition of CAMK2
[8] = molecular target: T2, Calcium/calmodulin-dependent protein kinase type IV (Homo sapiens) (UniProt Q16566); test: Inhibition of CAMK4
T2 sequence (whole entry): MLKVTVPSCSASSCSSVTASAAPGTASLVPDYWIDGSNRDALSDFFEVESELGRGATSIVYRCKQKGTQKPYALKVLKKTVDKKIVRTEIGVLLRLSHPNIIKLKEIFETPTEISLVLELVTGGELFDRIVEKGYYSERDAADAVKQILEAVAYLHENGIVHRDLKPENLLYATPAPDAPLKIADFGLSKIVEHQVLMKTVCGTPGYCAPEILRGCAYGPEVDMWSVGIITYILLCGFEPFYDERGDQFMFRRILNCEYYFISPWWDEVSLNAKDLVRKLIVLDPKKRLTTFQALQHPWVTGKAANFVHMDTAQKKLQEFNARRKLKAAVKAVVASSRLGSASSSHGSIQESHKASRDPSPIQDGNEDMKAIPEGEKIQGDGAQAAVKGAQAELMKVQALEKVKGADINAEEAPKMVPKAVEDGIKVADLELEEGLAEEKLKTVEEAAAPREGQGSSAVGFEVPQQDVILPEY

[9] = molecular target: Serine/threonine-protein kinase Chk2 (Homo sapiens) (UniProt O96017); test: Inhibition of CHK2
[10] = molecular target: Casein kinase I isoform delta (Homo sapiens) (UniProt P48730); test: Inhibition of CK1delta
[11] = molecular target: RAF proto-oncogene serine/threonine-protein kinase (Homo sapiens) (UniProt P04049); test: Inhibition of C-Raf
[12] = molecular target: Dual specificity tyrosine-phosphorylation-regulated kinase 1A (Homo sapiens) (UniProt Q13627); test: Inhibition of DYRK1A
[13] = molecular target: Mitogen-activated protein kinase 3 (Homo sapiens) (UniProt P27361); test: Inhibition of ERK1
[14] = molecular target: Fibroblast growth factor receptor 1 (Homo sapiens) (UniProt P11362); test: Inhibition of FGFR1
[15] = molecular target: T1, Gamma-secretase (Homo sapiens); test: Inhibition of gamma secretase in HEK293 cells assessed as amyloid beta secretion; type: cell-based
[16] = molecular target: T1, Gamma-secretase (Homo sapiens); test: Inhibition of gamma secretase in HEK293 cells assessed as amyloid beta 40 secretion at 50 uM; type: cell-based
[17] = molecular target: T1, Gamma-secretase (Homo sapiens); test: Inhibition of gamma secretase in HEK293 cells assessed as amyloid beta 38 secretion at 50 uM; type: cell-based
[18] = molecular target: T1, Gamma-secretase (Homo sapiens); test: Inhibition of gamma secretase in HEK293 cells assessed as amyloid beta 42 secretion at 50 uM; type: cell-based
[19] = molecular target: T1, Gamma-secretase (Homo sapiens); test: Inhibition of gamma secretase in HEK293 cells assessed as amyloid beta secretion at 150 uM; type: cell-based
[20] = molecular target: T1, Gamma-secretase (Homo sapiens); test: Inhibition of gamma secretase in HEK293 cells assessed as amyloid beta secretion at 250 uM; type: cell-based
[21] = test system: N2a; test: Inhibition of gamma secretase mediated amyloid beta 40 secretion in mouse N2a cells overexpressing CK1epsilon-271 within 5- to 50 uM after 3hr; type: cell-based
[22] = test system: N2a; test: Inhibition of gamma secretase mediated amyloid beta 42 secretion in mouse N2a cells overexpressing CK1epsilon-271 within 5- to 50 uM after 3hr; type: cell-based

Fibroblast growth factor receptor 1 (Homo sapiens), sequence (P11362 22-822 limits assumed): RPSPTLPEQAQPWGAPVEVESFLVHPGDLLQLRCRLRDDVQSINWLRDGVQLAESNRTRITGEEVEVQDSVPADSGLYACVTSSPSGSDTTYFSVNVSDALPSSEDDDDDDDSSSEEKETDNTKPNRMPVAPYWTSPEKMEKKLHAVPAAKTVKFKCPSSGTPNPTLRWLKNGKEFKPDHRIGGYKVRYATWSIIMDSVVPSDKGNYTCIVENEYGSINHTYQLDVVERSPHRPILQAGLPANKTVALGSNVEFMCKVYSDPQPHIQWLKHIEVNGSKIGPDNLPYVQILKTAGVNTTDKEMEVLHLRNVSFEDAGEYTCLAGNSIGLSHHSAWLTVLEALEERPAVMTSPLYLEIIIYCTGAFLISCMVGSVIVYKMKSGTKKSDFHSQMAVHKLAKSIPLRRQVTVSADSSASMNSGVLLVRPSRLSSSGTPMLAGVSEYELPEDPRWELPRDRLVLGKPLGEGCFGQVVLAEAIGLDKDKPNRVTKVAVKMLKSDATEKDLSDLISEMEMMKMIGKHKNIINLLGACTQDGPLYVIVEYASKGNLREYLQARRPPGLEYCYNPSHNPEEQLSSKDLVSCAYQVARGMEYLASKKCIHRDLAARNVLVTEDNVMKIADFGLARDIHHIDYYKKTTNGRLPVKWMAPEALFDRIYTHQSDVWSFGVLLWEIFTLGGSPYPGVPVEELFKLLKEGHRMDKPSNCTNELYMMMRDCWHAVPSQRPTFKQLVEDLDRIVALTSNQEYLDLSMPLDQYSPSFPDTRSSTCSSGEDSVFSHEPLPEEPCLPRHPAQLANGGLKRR
Tyrosine-protein kinase BTK (Homo sapiens), sequence (Q06187 whole entry): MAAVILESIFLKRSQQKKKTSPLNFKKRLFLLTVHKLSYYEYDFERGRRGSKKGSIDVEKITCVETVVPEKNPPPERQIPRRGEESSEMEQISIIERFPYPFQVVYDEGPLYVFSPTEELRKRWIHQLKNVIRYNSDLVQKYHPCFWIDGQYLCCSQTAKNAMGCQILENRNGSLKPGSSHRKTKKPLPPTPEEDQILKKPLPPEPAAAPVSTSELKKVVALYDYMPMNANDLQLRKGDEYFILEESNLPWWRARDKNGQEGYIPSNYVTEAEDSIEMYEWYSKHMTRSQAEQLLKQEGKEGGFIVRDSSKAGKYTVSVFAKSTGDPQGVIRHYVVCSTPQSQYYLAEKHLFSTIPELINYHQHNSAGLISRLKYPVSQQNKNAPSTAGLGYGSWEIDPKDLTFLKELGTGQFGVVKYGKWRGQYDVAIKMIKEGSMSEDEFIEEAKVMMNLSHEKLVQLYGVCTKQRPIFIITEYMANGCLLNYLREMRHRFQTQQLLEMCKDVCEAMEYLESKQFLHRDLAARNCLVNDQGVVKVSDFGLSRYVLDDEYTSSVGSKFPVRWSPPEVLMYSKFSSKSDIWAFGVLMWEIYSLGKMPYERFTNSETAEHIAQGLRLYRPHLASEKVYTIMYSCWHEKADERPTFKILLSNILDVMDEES
RAC-alpha serine/threonine-protein kinase (Homo sapiens), sequence (P31749 whole entry): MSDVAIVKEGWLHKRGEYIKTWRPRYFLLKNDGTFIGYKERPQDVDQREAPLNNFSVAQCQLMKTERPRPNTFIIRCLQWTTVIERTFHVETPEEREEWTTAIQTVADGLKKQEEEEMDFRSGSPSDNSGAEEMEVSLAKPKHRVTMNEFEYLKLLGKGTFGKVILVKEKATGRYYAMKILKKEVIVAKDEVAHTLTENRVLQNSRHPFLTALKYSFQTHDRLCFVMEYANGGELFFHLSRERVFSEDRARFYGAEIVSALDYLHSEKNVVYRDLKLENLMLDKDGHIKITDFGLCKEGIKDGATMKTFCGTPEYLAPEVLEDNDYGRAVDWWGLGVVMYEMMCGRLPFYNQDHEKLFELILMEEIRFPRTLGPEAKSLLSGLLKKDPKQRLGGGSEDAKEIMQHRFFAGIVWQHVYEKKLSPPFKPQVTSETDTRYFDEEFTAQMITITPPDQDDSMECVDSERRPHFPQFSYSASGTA
Mitogen-activated protein kinase 3 (Homo sapiens), sequence (P27361 whole entry): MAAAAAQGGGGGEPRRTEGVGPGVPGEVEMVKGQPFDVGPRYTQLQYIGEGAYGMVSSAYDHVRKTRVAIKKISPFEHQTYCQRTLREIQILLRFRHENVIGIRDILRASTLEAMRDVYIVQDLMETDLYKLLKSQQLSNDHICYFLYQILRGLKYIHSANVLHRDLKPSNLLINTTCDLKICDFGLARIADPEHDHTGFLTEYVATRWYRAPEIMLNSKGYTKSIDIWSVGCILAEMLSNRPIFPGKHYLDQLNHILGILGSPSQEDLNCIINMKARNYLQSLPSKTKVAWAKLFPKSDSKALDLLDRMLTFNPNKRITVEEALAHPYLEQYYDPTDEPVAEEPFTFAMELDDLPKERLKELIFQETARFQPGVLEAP
RAF proto-oncogene serine/threonine-protein kinase (Homo sapiens), sequence (P04049 whole entry): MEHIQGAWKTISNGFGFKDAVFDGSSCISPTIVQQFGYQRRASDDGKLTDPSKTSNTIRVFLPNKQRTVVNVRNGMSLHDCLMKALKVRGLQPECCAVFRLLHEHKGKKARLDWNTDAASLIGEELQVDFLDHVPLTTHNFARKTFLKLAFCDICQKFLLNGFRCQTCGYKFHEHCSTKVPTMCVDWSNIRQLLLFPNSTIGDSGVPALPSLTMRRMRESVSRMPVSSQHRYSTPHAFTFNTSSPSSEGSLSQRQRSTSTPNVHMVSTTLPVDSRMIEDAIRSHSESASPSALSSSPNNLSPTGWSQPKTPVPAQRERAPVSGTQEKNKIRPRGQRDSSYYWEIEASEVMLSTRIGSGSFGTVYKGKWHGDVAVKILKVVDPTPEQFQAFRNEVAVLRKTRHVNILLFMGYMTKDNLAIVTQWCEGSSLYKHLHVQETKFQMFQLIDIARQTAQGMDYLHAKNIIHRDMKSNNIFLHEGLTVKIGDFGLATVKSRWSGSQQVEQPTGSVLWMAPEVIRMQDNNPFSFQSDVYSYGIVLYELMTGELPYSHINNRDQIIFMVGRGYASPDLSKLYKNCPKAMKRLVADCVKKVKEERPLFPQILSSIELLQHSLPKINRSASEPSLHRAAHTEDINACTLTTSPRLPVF
Serine/threonine-protein kinase Chk2 (Homo sapiens), sequence (O96017 whole entry, canonical isoform): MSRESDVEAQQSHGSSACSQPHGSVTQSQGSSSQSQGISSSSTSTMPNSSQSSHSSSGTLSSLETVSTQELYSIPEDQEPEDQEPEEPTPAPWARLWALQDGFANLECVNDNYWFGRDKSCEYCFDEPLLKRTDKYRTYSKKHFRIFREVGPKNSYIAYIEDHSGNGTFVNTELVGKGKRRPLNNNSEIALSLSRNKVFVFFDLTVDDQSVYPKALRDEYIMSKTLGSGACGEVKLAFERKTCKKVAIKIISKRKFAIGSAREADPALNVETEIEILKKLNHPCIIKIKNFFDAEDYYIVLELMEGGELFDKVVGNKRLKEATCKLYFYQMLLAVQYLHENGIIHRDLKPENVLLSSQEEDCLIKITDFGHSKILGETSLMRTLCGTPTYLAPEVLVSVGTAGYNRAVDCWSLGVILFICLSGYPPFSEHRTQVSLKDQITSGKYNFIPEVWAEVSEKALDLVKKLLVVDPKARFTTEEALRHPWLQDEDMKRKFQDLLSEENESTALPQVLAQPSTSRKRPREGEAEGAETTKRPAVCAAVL
Casein kinase I isoform delta (Homo sapiens), sequence (P48730 whole entry, looked up, canonical isoform): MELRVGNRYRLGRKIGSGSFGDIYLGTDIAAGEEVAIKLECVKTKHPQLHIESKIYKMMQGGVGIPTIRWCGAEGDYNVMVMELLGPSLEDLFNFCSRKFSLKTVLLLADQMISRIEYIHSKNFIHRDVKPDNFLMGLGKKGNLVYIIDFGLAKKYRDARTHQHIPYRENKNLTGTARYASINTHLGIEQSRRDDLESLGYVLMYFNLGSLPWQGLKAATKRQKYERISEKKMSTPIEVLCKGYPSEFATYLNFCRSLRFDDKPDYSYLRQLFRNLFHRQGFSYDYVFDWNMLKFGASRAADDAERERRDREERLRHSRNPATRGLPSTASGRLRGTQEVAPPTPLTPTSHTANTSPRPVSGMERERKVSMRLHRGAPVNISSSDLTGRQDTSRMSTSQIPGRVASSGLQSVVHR

Structure (SMILES): COc1ccc(/C=C2/C(=O)Nc3ccc(Cl)cc32)c(OC)c1OC
- inhibition [4]: inactive
- inhibition [5]: inactive
- inhibition [6]: inactive
- inhibition [7]: inactive
- inhibition [8]: inactive
- inhibition [9]: inactive
- inhibition [10]: inactive
- inhibition [11]: inactive
- inhibition [12]: inactive
- inhibition [13]: inactive
- inhibition [14]: inactive

Structure (SMILES): CCN(CC)CCNC(=O)c1c(C)[nH]c(/C=C2\C(=O)Nc3ccc(F)cc32)c1C [SUNITINIB]
- Activity [15]: inactive

Structure (SMILES): COc1cc(OC)c(C=C2C(=O)Nc3ccccc32)c(OC)c1
- inhibition [16]: inactive
- inhibition [17]: inactive
- inhibition [18]: inactive
- inhibition [19]: inactive
- inhibition [20]: Active
- inhibition [21]: 68%
- inhibition [22]: 61%
- inhibition [4]: inactive
- inhibition [5]: inactive
- inhibition [6]: inactive
- inhibition [7]: inactive
- inhibition [8]: inactive
- inhibition [9]: inactive
- inhibition [11]: inactive
- inhibition [12]: inactive
- inhibition [13]: inactive
- inhibition [14]: inactive

Results, then the compound that gave them:

- residual activity [1]: 81%
- residual activity [2]: 106%
- residual activity [3]: 112%
Structure (SMILES): O=C1Nc2ccc(Cl)cc2/C1=C\c1cc(F)cc(F)c1

- inhibition ([4]; concentration not given here): < 20%
- inhibition ([5]; concentration not given here): < 20%
- inhibition ([6]; concentration not given here): < 20%
- inhibition ([7]; concentration not given here): < 20%
- inhibition ([8]; concentration not given here): < 20%
- inhibition ([9]; concentration not given here): < 20%
- inhibition ([10]; concentration not given here): < 20%
- inhibition ([11]; concentration not given here): < 20%
- inhibition ([12]; concentration not given here): < 20%
- inhibition ([13]; concentration not given here): < 20%
- inhibition ([14]; concentration not given here): < 20%
Structure (SMILES): COc1cc(OC)c(/C=C2/C(=O)Nc3ccc(Cl)cc32)c(OC)c1
